From article PMC6982127, “GTP Binding Is Necessary for the Activation of a Toxic Mutant Isoform of the Essential GTPase ObgE” (International Journal of Molecular Sciences, 2019)
Like-named read-outs stand apart in the source and are kept apart here.

Assays:
Assay in all cases: isothermal titration calorimetry
Type in all cases: binding
[1] = molecular target: T1, ObgE (Escherichia coli, UniProt P42641, DEL153-156)
T1 construct: full-length ObgE, N-terminal His6 tag (pET28a-obgE), expressed in E. coli BL21(DE3) pLysS, Ni-NTA and size exclusion, made nucleotide-free by alkaline phosphatase
T1 sequence (P42641 with tags, fused parts or gaps DEL153-156): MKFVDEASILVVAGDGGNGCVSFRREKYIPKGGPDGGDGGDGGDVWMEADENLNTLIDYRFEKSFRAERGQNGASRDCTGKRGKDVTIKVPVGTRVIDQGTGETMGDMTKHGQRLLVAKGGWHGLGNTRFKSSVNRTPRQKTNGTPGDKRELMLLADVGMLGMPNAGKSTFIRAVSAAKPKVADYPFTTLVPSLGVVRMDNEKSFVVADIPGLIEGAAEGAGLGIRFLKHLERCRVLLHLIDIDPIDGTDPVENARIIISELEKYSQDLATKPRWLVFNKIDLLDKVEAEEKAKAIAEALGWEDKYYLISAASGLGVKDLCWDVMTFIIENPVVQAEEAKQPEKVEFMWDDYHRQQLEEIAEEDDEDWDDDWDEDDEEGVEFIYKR
Text: (§1) isothermal titration calorimetry on ObgE

[2] = molecular target: T2, ObgE (Escherichia coli, UniProt P42641, E265K)
T2 construct: full-length ObgE, N-terminal His6 tag (pET28a-obgE), expressed in E. coli BL21(DE3) pLysS, Ni-NTA and size exclusion, made nucleotide-free by alkaline phosphatase
T2 sequence (P42641 whole entry E265K): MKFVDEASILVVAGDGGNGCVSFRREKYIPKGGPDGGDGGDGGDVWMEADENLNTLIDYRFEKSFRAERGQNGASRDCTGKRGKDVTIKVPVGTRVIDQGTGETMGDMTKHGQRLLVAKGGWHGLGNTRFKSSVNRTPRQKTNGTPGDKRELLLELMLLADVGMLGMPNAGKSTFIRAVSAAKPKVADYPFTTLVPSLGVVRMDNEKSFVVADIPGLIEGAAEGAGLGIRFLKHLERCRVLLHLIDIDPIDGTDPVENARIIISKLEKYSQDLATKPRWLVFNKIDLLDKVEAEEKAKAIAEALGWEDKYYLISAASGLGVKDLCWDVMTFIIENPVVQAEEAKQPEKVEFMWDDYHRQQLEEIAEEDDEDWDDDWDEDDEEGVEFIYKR
Text: as §1

[3] = molecular target: T3, ObgE (Escherichia coli, UniProt P42641, H234R)
T3 construct: full-length ObgE, N-terminal His6 tag (pET28a-obgE), expressed in E. coli BL21(DE3) pLysS, Ni-NTA and size exclusion, made nucleotide-free by alkaline phosphatase
T3 sequence (P42641 whole entry H234R): as the sequence (P42641 whole entry E265K) above, with H234R, K265E counted along it
Text: as §1

[4] = molecular target: T4, ObgE (Escherichia coli, UniProt P42641, T174I)
T4 construct: full-length ObgE, N-terminal His6 tag (pET28a-obgE), expressed in E. coli BL21(DE3) pLysS, Ni-NTA and size exclusion, made nucleotide-free by alkaline phosphatase
T4 sequence (P42641 whole entry T174I): as the sequence (P42641 whole entry E265K) above, with T174I, K265E counted along it
Text: as §1

[5] = read-out: Equilibrium Dissociation Constants / KD(ppGpp)
[6] = read-out: Equilibrium Dissociation Constants / KD(GDP)
[7] = read-out: Equilibrium Dissociation Constants / KD(GTPγS)

## Nc1nc2c(ncn2[C@@H]2O[C@H](COP(=O)(O)OP(=O)(O)O)[C@@H](OP(=O)(O)OP(=O)(O)O)[C@H]2O)c(=O)[nH]1 [ppGpp]
[1]; [5]
  Kd: 640 ± 60 nM
[2]; [5]
  Kd: 310 ± 30 nM
[3]; [5]
  Kd: 600 ± 60 nM
[4]; [5]
  Kd: 81000 ± 3000 nM

## Nc1nc2c(ncn2[C@@H]2O[C@H](COP(=O)(O)OP(=O)(O)O)[C@@H](O)[C@H]2O)c(=O)[nH]1 [GDP]
[1]; [6]
  Kd: 600 ± 50 nM
[2]; [6]
  Kd: 250 ± 30 nM
[3]; [6]
  Kd: 430 ± 50 nM
[4]; [6]
  Kd: 115000 ± 2000 nM

## Nc1nc2c(ncn2[C@@H]2O[C@H](COP(=O)(O)OP(=O)(O)OP(O)(O)=S)[C@@H](O)[C@H]2O)c(=O)[nH]1 [GTPγS]
[1]; [7]
  Kd: 3400 ± 500 nM
[2]; [7]
  Kd: 5700 ± 800 nM
[3]; [7]
  Kd: 3700 ± 500 nM
[4]; [7]
  Kd: 160000 ± 11000 nM
